Reference: patent US4983600A, “Heterocyclic compounds useful as 5-HT3 antagonists” (John Wyeth & Brother Limited, priority 1987, dated 1991)

Columns and labels:
5-HT3 receptors = target: T1, 5-HT3 receptors (Oryctolagus cuniculus, UniProt A0A5F9C9J3); assay: 5-HT3 antagonistic activity in the isolated right atrium of the rabbit heart; assay type: cell-based; settings: 10^-5 M 5-HT, read-out: -log IC50 (chronotropic response to 10^-5 M 5-HT) (converted)
T1 construct: isolated right atrium of the rabbit heart; from tissue; host or cells: rabbit heart, isolated right atrium (sympathetic nerve terminals)
T1 sequence (A0A5F9C9J3 1-494): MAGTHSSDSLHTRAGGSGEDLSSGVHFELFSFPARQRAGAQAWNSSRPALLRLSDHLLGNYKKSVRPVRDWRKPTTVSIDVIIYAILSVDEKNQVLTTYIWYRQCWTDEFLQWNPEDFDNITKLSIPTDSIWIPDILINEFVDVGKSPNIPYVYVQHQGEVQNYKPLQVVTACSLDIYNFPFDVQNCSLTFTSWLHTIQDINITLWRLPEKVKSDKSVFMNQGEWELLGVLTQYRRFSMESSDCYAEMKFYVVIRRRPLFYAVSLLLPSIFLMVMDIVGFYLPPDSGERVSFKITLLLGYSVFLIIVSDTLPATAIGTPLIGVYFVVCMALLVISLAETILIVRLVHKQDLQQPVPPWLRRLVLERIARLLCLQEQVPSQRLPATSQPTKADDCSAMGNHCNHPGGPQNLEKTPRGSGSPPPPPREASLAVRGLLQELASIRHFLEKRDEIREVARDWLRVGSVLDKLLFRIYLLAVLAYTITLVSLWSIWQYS
Description: In particular they antagonise specific 5-hydroxytryptamine (5-HT) receptors in warm blooded animals. […] 5-HT3 -antagonists are also termed "antagonists of "neuronal" 5-hydroxytryptamine receptors" and "serotonin (5-hydroxytryptamine) M-receptor antagonists". Such compounds have been described as being useful inter alia in the treatment of migraine, emesis, anxiety, gastrointestinal disorders and as anti-psychotics.
The compounds of the invention are tested for 5-HT3 antagonistic activity in the isolated right atrium of the rabbit heart based upon the method of Fozard J. R., Naunyn-Schmiedeberg's Arch. Pharmacol., 1984, 326, 36-44. This procedure relies upon the ability of 5-HT to stimulate 5-HT3 receptors present on sympathetic nerve terminals in the heart, causing release of noradrenaline which evokes an increase in the spontaneous rate of beating. The antagonist potency is expressed as -log IC50 (where IC50 is the chronotropic response to 10^-5 M 5-HT by 50%)

[1] = potential anxiolytic activity: mouse exploratory activity in a two-compartment light/dark box; assay type: in vivo; settings: mice, Student's unpaired t-test vs vehicle, *P<0.05, **P<0.01, ***P<0.001
Description: The compounds of the invention are tested for potential anxiolytic activity by a test procedure measuring mouse exploratory activity in a two-compartment light/dark box based upon the procedure of B Costall et al, Neuropharmacology, 1987, 26, 195-200 and J N Crawley et al, Pharmac. Biochem. Behav., 1980, 13, 167-170. The test involves observing groups of mice placed in an open topped box, one third of which is painted black and illuminated under a dim red light and partitioned from the remainder of the box which is painted white and brightly illuminated. Access between the two sections is via an opening in the centre of the partition. The groups of mice are treated with vehicle or test compound and various behavioural parameters of the animals are measured including the number of exploratory rearings made by the mice in each section and the number of times the mice cross lines marked on the floor of each section. For each treatment group the mean number of line crossings and rears in each section of the box are calculated. Differences between drug-treated groups and vehicle-treated controls are compared using Student's unpaired t-test. […] Test compounds are considered to be active if they induce a similar set of changes and, in particular, if they produce a significant (p<0.05) increase in rearing activity in the light section of the box.

[2] = 2.0 mg/kg s.c., standard anxiolytic

| Compound | IC50 (5-HT3 receptors) | % Change Relative to Controls: Line Crossings ([1]; 1.0 mg/kg s.c.) | % Change Relative to Controls: Rears ([1]; 1.0 mg/kg s.c.) | % Change Relative to Controls: Line Crossings ([1]; 0.1 mg/kg s.c.) | % Change Relative to Controls: Rears ([1]; 0.1 mg/kg s.c.) | % Change Relative to Controls: Line Crossings [1, 2] | % Change Relative to Controls: Rears [1, 2] |
| --- | --- | --- | --- | --- | --- | --- | --- |
| O=C(Nc1cc(Cl)cc(Cl)c1)N[C@@H]1CN2CCC1CC2 [Example 12, (S)-(-)-N-(1-Azabicyclo[2.2.2]octan-3-yl)-N'-(3,5-dichlorophenyl)urea] | 0.501 nM | +42% | +75% |  |  |  |  |
| O=C(Nc1cc(Cl)cc(Cl)c1)NC1CN2CCC1CC2 (stereo not shown) [Example 1] | 5.01 nM |  |  | +40% | +85% |  |  |
| COc1ccccc1C(=O)NC(=O)NC1CN2CCC1CC2 (stereo not shown) [Example 5, N-[[[1-Azabicyclo[2.2.2]octan-3-yl]amino]carbonyl]-2-methoxybenzamide] | 2.14 nM |  |  | +20% | +73% |  |  |
| O=C(Nc1cc(Cl)cc(Cl)c1)N[C@H]1CN2CCC1CC2 [Example 13, (R)-(+)-N-(1-Azabicyclo[2.2.2]octan-3-yl)-N'-(3,5-dichlorophenyl)urea] |  |  |  | +69% | +90% |  |  |
| CNC1=Nc2ccc(Cl)cc2C(c2ccccc2)=[N+]([O-])C1 [Chlordiazepoxide, reference compound] |  |  |  |  |  | +42% | +77% |
